Results: US5508428A, “Spiro compound” (Daiichi Phamaceutical Co., Ltd., priority 1988, dated 1996)
Values after ≈ are worked out from the molar mass of the structure shown.

Experiments:
Type in all cases: cell-based
[1] = tested on: E. coli, NIHJ; assay: Antibacterial activity (MIC), E. coli NIHJ; conditions: Escherichia coli
Procedure: (§1) The antibacterial activity assays were performed by the method specified by Japan Society of Chemotherapy (Chemotherapy 29(1), 76 (1981). The table of antibacterial activity is followed by the reaction schemes for the synthesis of various spiro ring-containing cyclic amine derivatives, intermediate compounds for synthesis of quinolone rings and synthesis of various spiro compounds.

[2] = tested on: S. flexneri, 2A 5503; assay: Antibacterial activity (MIC), S. flexneri 2A 5503; conditions: Shigella flexneri, 2A5503
Procedure: as §1

[3] = tested on: Pr. vulgaris, 08601; assay: Antibacterial activity (MIC), Pr. vulgaris 08601; conditions: Proteus vulgaris
Procedure: as §1

[4] = tested on: Pr. mirabillis, IF0-3849; assay: Antibacterial activity (MIC), Pr. mirabillis IF0-3849
Procedure: as §1

[5] = tested on: Ser. marcescens, 10100; assay: Antibacterial activity (MIC), Ser. marcescens 10100; conditions: Serratia marcescens, 10100, Ser. marcescens
Procedure: as §1

[6] = tested on: Ps. aeruginosa, 32104; assay: Antibacterial activity (MIC), Ps. aeruginosa 32104; conditions: Pseudomonas aeruginosa, 32104, Ps. aeruginosa
Procedure: as §1

[7] = tested on: Ps. aeruginosa, 32121; assay: Antibacterial activity (MIC), Ps. aeruginosa 32121; conditions: Pseudomonas aeruginosa, 32121, Ps. aeruginosa
Procedure: as §1

[8] = tested on: Ps. maltophilia, IID-1275; assay: Antibacterial activity (MIC), Ps. maltophilia IID-1275; conditions: Stenotrophomonas maltophilia, IID1275, Ps. maltophilia
Procedure: as §1

[9] = tested on: S. aureus, 209P; assay: Antibacterial activity (MIC), S. aureus 209P; conditions: Staphylococcus aureus
Procedure: as §1

[10] = tested on: S. epidermidis, 56500; assay: Antibacterial activity (MIC), S. epidermidis 56500; conditions: Staphylococcus epidermidis, 56500, S. epidermidis
Procedure: as §1

[11] = tested on: Str. pyogenes, G-36; assay: Antibacterial activity (MIC), Str. pyogenes G-36; conditions: Streptococcus pyogenes, G36, Str. pyogenes
Procedure: as §1

[12] = tested on: Str. faecalis, ATCC-19433; assay: Antibacterial activity (MIC), Str. faecalis ATCC-19433; conditions: Enterococcus faecalis, ATCC19433, Str. faecalis
Procedure: as §1

Row | SMILES | MIC [1] [µg/mL] | MIC [2] [µg/mL] | MIC [3] [µg/mL] | MIC [4] [µg/mL] | MIC [5] [µg/mL] | MIC [6] [µg/mL] | MIC [7] [µg/mL] | MIC [8] [µg/mL] | MIC [9] [µg/mL] | MIC [10] [µg/mL] | MIC [11] [µg/mL] | MIC [12] [µg/mL]
1 | O=C(O)c1cn(C2CC2)c2cc(N3CCNC4(CC4)C3)c(F)cc2c1=O [Compound 37, 1-Cyclopropyl-7-(4,7-diazaspiro[2.5]octan-7-yl)-6-fluoro-1,4-dihydro-4-oxoquinoline-3-carboxylic acid] | ≤ 0.05 | ≤ 0.05 | ≤ 0.05 | ≤ 0.05 | 0.1 (≈ 0.28 µM) | 0.2 (≈ 0.56 µM) | 0.2 (≈ 0.56 µM) | 0.39 (≈ 1.09 µM) | 0.2 (≈ 0.56 µM) | 0.39 (≈ 1.09 µM) | 0.78 (≈ 2.18 µM) | 0.78 (≈ 2.18 µM)
2 | NC1CN(c2cc3c(cc2F)c(=O)c(C(=O)O)cn3C2CC2)CC12CC2 (racemic) [Compound 33, 7-(7-Amino-5-azaspiro[2.4]heptan-5-yl)-1-cyclopropyl-6-fluoro-1,4-dihydro-4-oxoquinoline-3-carboxylic Acid] | ≤ 0.05 | ≤ 0.05 | ≤ 0.05 | ≤ 0.05 | 0.1 (≈ 0.28 µM) | 0.1 (≈ 0.28 µM) | ≤ 0.05 | 0.1 (≈ 0.28 µM) | ≤ 0.05 | 0.2 (≈ 0.56 µM) | 0.39 (≈ 1.09 µM) | 0.39 (≈ 1.09 µM)
3 | CC(C)(C)n1cc(C(=O)O)c(=O)c2cc(F)c(N3CC(N)C4(CC4)C3)nc21 (stereo not drawn) [Compound 41b, 7-(7-Amino-5-azaspiro[2.4]heptan-5-yl)-1,4-dihydro-6-fluoro-1-(2-methyl-2-propyl)-4-oxo-1,8-naphthyridine-3-carboxylic acid] | ≤ 0.05 | ≤ 0.05 | 0.1 (≈ 0.267 µM) | 0.2 (≈ 0.534 µM) | 0.1 (≈ 0.267 µM) | 0.2 (≈ 0.534 µM) | 0.1 (≈ 0.267 µM) | 0.1 (≈ 0.267 µM) | ≤ 0.05 | 0.1 (≈ 0.267 µM) | 0.39 (≈ 1.04 µM) | 0.2 (≈ 0.534 µM)
4 | NC1CN(c2c(F)cc3c(=O)c(C(=O)O)cn(C4CC4)c3c2F)CC12CCC2 (stereo not drawn) [Compound 94] | ≤ 0.05 | ≤ 0.05 | ≤ 0.05 | 0.1 (≈ 0.257 µM) | 0.1 (≈ 0.257 µM) | 0.1 (≈ 0.257 µM) | 0.39 (≈ 1 µM) | 0.2 (≈ 0.514 µM) | ≤ 0.05 | ≤ 0.05 | 0.39 (≈ 1 µM) | 0.2 (≈ 0.514 µM)
5 | N[C@@H]1CN(c2cc3c(cc2F)c(=O)c(C(=O)O)cn3C2CC2)CC12CC2 [Compound 33b, (-)-7-[7-(S)-amino-5-azaspiro[2.3]heptan-5-yl)-1-cyclopropyl-6-fluoro-1,4-dihydro-4-oxoquinoline-3-carboxylic acid] | ≤ 0.05 | ≤ 0.05 | ≤ 0.05 | ≤ 0.05 | ≤ 0.05 | ≤ 0.05 | ≤ 0.05 | 0.1 (≈ 0.28 µM) | ≤ 0.05 | 0.1 (≈ 0.28 µM) | 0.2 (≈ 0.56 µM) | 0.2 (≈ 0.56 µM)
6 | O=C(O)c1cn(C2CC2)c2c(F)c(N3CC(CO)C4(CCC4)C3)c(F)cc2c1=O (stereo not drawn) [Compound 108, 1-Cyclopropyl-6,8,difluoro-7-(8-hydroxymethyl-6-azaspiro-[3.4]octan-6-yl)-4-oxo-1,4-dihydroquinoline-3-carboxylic acid] | 0.2 (≈ 0.495 µM) | 0.2 (≈ 0.495 µM) | 0.1 (≈ 0.247 µM) | 0.78 (≈ 1.93 µM) | 1.56 (≈ 3.86 µM) | 1.56 (≈ 3.86 µM) | 0.39 (≈ 0.964 µM) | 1.56 (≈ 3.86 µM) | ≤ 0.05 | ≤ 0.05 | 0.39 (≈ 0.964 µM) | 0.2 (≈ 0.495 µM)
7 | NC1CN(c2cc3c(cc2F)c(=O)c(C(=O)O)cn3-c2ccc(F)cc2F)CC12CC2 (stereo not drawn) [Compound 34, 7-(7-amino-5-azaspiro[2.4]heptan-5-yl)-6-fluoro-1-(2.4-difluorophenyl)-1,4-dihydro-4-oxoquinoline-3-carboxylic acid] | ≤ 0.05 | ≤ 0.05 | 0.2 (≈ 0.466 µM) | 0.39 (≈ 0.908 µM) | 0.39 (≈ 0.908 µM) | 0.39 (≈ 0.908 µM) | 0.2 (≈ 0.466 µM) | 0.1 (≈ 0.233 µM) | 0.1 (≈ 0.233 µM) | 0.2 (≈ 0.466 µM) | 0.39 (≈ 0.908 µM) | 0.78 (≈ 1.82 µM)
8 | NC1CN(c2c(F)cc3c(=O)c(C(=O)O)cn(C4CC4)c3c2F)CC12CCCC2 (stereo not drawn) [Compound 95, 7-(4-amino-2-azaspiro[4.4]nonan-2-yl)-1-cyclopropyl-6,8-difluoro-4-oxo-1,4-dihydroquinoline-3-carboxylic acid] | ≤ 0.05 | ≤ 0.05 | ≤ 0.05 | ≤ 0.05 | 0.1 (≈ 0.248 µM) | 0.39 (≈ 0.967 µM) | 0.2 (≈ 0.496 µM) | 0.1 (≈ 0.248 µM) | ≤ 0.05 | 0.1 (≈ 0.248 µM) | 0.2 (≈ 0.496 µM) | 0.2 (≈ 0.496 µM)
